Ends that are not written are not given here.
Legend:
RGNNV [1] = test system: RGNNV; set-up: method as in Zhu et al. [2022]; details: RGNNV-infected hybrid grouper; ref Zhu et al. [2022]; cited from earlier work
Experimental: Given RGNNV’s rapid organ colonisation (Valero et al. [2018]), treatments were administered 2 h post-infection to ensure viral establishment.

NNV = details: synthetic sea bass peptides, NNV infection; ref Cervera et al. [2024b], [2025]; cited from earlier work
Experimental: Since co-administered peptides disrupt RGNNV adsorption in vitro, we evaluated their therapeutic potential in vivo by administering them […]. […] Given RGNNV’s rapid organ colonisation (Valero et al. [2018]), treatments were administered 2 h post-infection to ensure viral establishment.

RGNNV [2] = test: RGNNV in vivo bath challenge of European sea bass with peptide injection after infection; set-up: species or system European sea bass (Dicentrarchus labrax)
Experimental: RGNNV In vivo Challenge of European Sea Bass
A total of 375 sea bass were randomly assigned to eight experimental groups (in duplicate) and acclimated for 15 days. Seven groups were infected by immersion (10 L; 3.16 × 10^4 TCID₅₀ RGNNV/mL; 2 h), while a mock-infected control received conditioned medium. […] Combinations were selected according to the results obtained in the competitive in vitro assay against RGNNV (see below). Disease signs and mortalities were monitored daily for 23 days post-infection (dpi) using a four-rank scale (Valero et al. [2021a]). Fish (n = 6/group/time-point) were sampled at 2 and 23 dpi, euthanized with clove oil, bled, and weighed. Brain, NNV target tissue, and head-kidney, major hematopoietic tissue in fish, were dissected, frozen in TRIzol (Life Technologies), and stored at − 80 °C.
For viral load analysis, total RNA was extracted from sea bass brain and head-kidney using TRIzol (Life Technologies) and from E − 11 cells using the GenJET RNA Purification Kit (Thermo Fisher Scientific), following manufacturer protocols. One microgram of RNA was DNAse I-treated (1 U/µL; Thermo Scientific), and cDNA was synthesized using Superscript IV Reverse Transcriptase (Invitrogen). qPCR was performed on a QuantStudio 5 Flex (Applied Biosystems) to quantify cp, rdrp and mx genes using PowerUp SYBR Green reagents (Applied Biosystems). The protocol included a 95 °C hold, then 40 cycles (95 °C; 15 s) and 60 °C for 1 min. Relative expression was calculated using the 2^⁻ΔCt method (Livak and Schmittgen [2001]), with ef1a as the endogenous control. Primers (Supplementary Data S2) were validated by melting curve analysis and negative controls.
Fish mortality was analysed using Kaplan–Meier survival curves with log-rank (Mantel–Cox) tests for significance. Relative gene expression was evaluated by one-way ANOVA (p ≤ 0.05) followed by Tukey’s test. Viral kinetics were compared between P4-treated and untreated groups using Student’s t-test (p ≤ 0.05) at specific time points. All analyses were performed with IBM SPSS Statistics 20.
Fig. 4 Therapeutic administration of synthetic peptides improves survival and symptomatology in […] (RGNNV)-infected European sea bass juveniles. […] A mock-infected group was treated twice with only PBS. (A) Kaplan–Meier survival curves; (B) Heat-map representing the cumulated number of fish showing clinical signs of VER disease attending to their severity: (1) changes of the color of the skin, slower rhythm of swimming and/or slower reaction to external stimuli as feeding; (2) alterations in the swimming balance and/or erratic swimming spasms; (3) continuous erratic swimming; and (4) complete incapacity to keep balance, swim and/or move without external stimuli. VER, viral encephalopathy and retinopathy
Fig. 5 Therapeutic administration of synthetic peptides decreased viral loads in the brain without additional mx gene regulation in the sea bass juveniles head-kidney infected with red-spotted grouper nervous necrosis virus (RGNNV). […] A mock-infected group was treated twice with only PBS. (A–C) Transcription levels of RGNNV cp (A) and rdrp (B) genes in the brain and (C) mx gene in the head-kidney. Data represent the relative gene expression mean ± SEM (n = 6). Different letters indicate significant differences among groups according to the ANOVA (p < 0.05)

RGNNV/SJNNV reassortant = test: In vitro antiviral (competition) assay: virus incubated with peptide, then titrated in E-11 cells; assay type: cell-based, RGNNV/SJNNV reassortant (367.2.2005); details: virus (MOI 0.01) incubated with 500 μg/mL peptide for 15 min at 25 °C, control virus + PBS, representative of two independent assays, Fig. 2B
Experimental: (§1) Parental RGNNV (strain It/411/96), SJNNV (strain SJNag97), and reassortant isolates (RGNNV/SJNNV, 367.2.2005; SJNNV/RGNNV, 389/I96) were used. Viruses were propagated in E − 11 cells cultured in L-15 Leibovitz medium (BioWest) supplemented with 5% FBS, 2 mM L-glutamine, and 100 IU/mL penicillin/streptomycin (Thermo Fisher Scientific) at 25 °C. Infected monolayers were incubated at 25 °C until extensive cytopathic effect (CPE) developed. Supernatants were then harvested, centrifuged, and titrated in triplicate using the end-point dilution method, expressed as TCID₅₀/mL (Reed and Müench [1938]).
(§2) For in vitro antiviral assays, viral cultures (MOI 0.01) from parental and reassortant strains were incubated with peptides (single or combined) using a non-lethal concentration previously tested (500 μg/mL; León et al. [2020]), for 15 min at 25 °C with gentle agitation. Controls were virus samples incubated with PBS (100% viral activity). Treated samples were titrated as previously. After medium removal, cells were exposed to ten-fold viral dilutions in 2% FBS. CPE was monitored daily for 10 days, and viral titres were calculated as TCID₅₀/mL (Reed and Müench [1938]) and expressed as viral titre or percent inhibition relative to controls.
Fig. 2 Designed peptides, single or combined, reduce the NNV absorption in vitro. […]

SJNNV = assay type: cell-based, striped jack nervous necrosis virus (strain SJNag97); details: virus (MOI 0.01) incubated with 500 μg/mL peptide for 15 min at 25 °C, titrated in E-11 cells; control virus + PBS; representative of two independent assays; Fig. 2B
Experimental: as §1, §2
Fig. 2 Designed peptides, single or combined, reduce the NNV absorption in vitro. NNV parental or reassortant genotypes were incubated with 500 μg/mL of the synthetic peptides for 15 min. Then, the viruses were titrated in the E − 11 cell line. Control samples consisted on virus incubated with the same amount of phosphate buffer saline. (A) Viral titer (TCID50/mL) and (B) % of virus inhibition with respect to the controls are represented. Data are representative of two independent assays. […] Each bar was matched to a substance by its colour and by the order of the legend.

E-11 cells = test: MTT cytotoxicity test on E-11 cells; assay type: cell-based; details: 24 h at 25 °C, mean of n = 3, control = 100.0
Experimental: Synthetic peptides cytotoxicity on E − 11 cells was assessed using the MTT (Sigma) test with serial peptide dilutions (1000–4 µg/mL in L − 15 medium; n = 3; 24 h at 25 °C) as elsewhere (Cervera et al. [2024c]). Absorbance was measured at 570 nm (BMG Labtech); blanks lacked cells. Cell viability was calculated as the OD ratio of treated to untreated cells × 100, normalized at 690 nm.
Supplementary data S4: Cell viability (%) of E-11 cells after incubation with the synthetic peptides for 24 h. Data represent the mean ± SEM (n=3).

NC12CC3CC(CC(C3)C1)C2 [amantadine]
Improvement of survival (RGNNV [1]): 44%

Hepcidin
Reduction of mortality (NNV): 30–35%

VSKASTVTGFGR-NH2 [Peptide P2]
Relative percent survival (RPS) (RGNNV [2]; juvenile sea bass, bath infection 3.16 × 10^4 TCID₅₀ RGNNV/mL for 2 h, then intramuscular injection 1 µg peptide/g, 23 dpi, infected PBS group 63.6% survival): 43.8% | RGNNV cp gene expression in the brain (RGNNV [2]; qPCR relative to ef1a, 2 dpi, n = 6, 1 µg peptide/g i.m. after RGNNV bath challenge, Fig. 5A): no transcriptional effect | RGNNV rdrp gene expression in the brain (RGNNV [2]; qPCR relative to ef1a, 2 dpi, n = 6, 1 µg peptide/g i.m. after RGNNV bath challenge, Fig. 5B): no transcriptional effect | % of virus inhibition with respect to the controls, RGNNV/SJNNV (RGNNV/SJNNV reassortant): 96.84% | % of virus inhibition with respect to the controls, SJNNV (SJNNV): 90% | Viability (%) of E-11 cells, mean (E-11 cells; peptide 0.00411 mg/mL): 103.1% | Viability (%) of E-11 cells, mean (E-11 cells; peptide 0.01234 mg/mL): 121.8% | Viability (%) of E-11 cells, mean (E-11 cells; peptide 0.03704 mg/mL): 111.5% | Viability (%) of E-11 cells, mean (E-11 cells; peptide 0.11111 mg/mL): 106.2% | Viability (%) of E-11 cells, mean (E-11 cells; peptide 0.33333 mg/mL): 126.9% | Viability (%) of E-11 cells, mean (E-11 cells; peptide 1.00000 mg/mL): 117.2%
